We go through 14 compounds from ChEMBL document CHEMBL3877320, “Synthesis of new analogs of AKBA and evaluation of their anti-inflammatory activities” (Bioorg Med Chem, 2017).

≈ marks a conversion by molar mass, not a printed value.

This experiment can be described thus: Inhibition of potato 5-lipoxygenase using linoleic acid as substrate preincubated for 2 mins followed by substrate addition measured for 120 secs. On the set-up: species or system Solanum tuberosum.

For `C[C@H]1[C@H](C)CC[C@]2(C)CC[C@]3(C)C(=CC(=O)[C@@H]4[C@@]5(C)Cc6cn[nH]c6[C@](C)(C(=O)O)[C@@H]5CC[C@]43C)[C@H]12`, the IC50 was over 100 µg/mL.

The compound `C[C@H]1[C@H](C)CC[C@]2(C)CC[C@]3(C)C(=CC(=O)[C@@H]4[C@@]5(C)CC(C=O)C(=O)[C@](C)(C(=O)N6CCCCC6)[C@@H]5CC[C@]43C)[C@H]12` (some centres undefined) registered an IC50 of over 100 µg/mL.

The compound `C[C@H]1[C@H](C)CC[C@]2(C)CC[C@]3(C)C(=CC(=O)[C@@H]4[C@@]5(C)Cc6cn[nH]c6[C@](C)(C(=O)N6CCNCC6)[C@@H]5CC[C@]43C)[C@H]12` displayed an IC50 of over 100 µg/mL.

For `C[C@H]1[C@H](C)CC[C@]2(C)CC[C@]3(C)C(=CC(=O)[C@@H]4[C@@]5(C)Cc6cnoc6[C@](C)(C(=O)N6CCCCC6)[C@@H]5CC[C@]43C)[C@H]12`, the IC50 was 20.31 µg/mL (≈ 36.2 µM).

With `COC(=O)[C@@]1(C)C(=O)C(C#N)=C[C@]2(C)[C@H]3C(=O)C=C4[C@@H]5[C@@H](C)[C@H](C)CC[C@]5(C)CC[C@@]4(C)[C@]3(C)CC[C@@H]12`, the IC50 is over 100 µg/mL.

Consider `C[C@H]1[C@H](C)CC[C@]2(C)CC[C@]3(C)C(=CC(=O)[C@@H]4[C@@]5(C)Cc6cn[nH]c6[C@](C)(C(=O)N6CCCCC6)[C@@H]5CC[C@]43C)[C@H]12`, for which the IC50 was over 100 µg/mL.

In turn, `C[C@H]1[C@H](C)CC[C@]2(C)CC[C@]3(C)C(=CC(=O)[C@@H]4[C@@]5(C)CC(C=O)C(=O)[C@](C)(C(=O)Nc6ccccc6)[C@@H]5CC[C@]43C)[C@H]12` (some centres undefined) returned an IC50 of 19.53 µg/mL (≈ 34.2 µM).

The compound `COC(=O)[C@@]1(C)c2oncc2C[C@@]2(C)[C@H]1CC[C@]1(C)[C@@H]2C(=O)C=C2[C@@H]3[C@@H](C)[C@H](C)CC[C@]3(C)CC[C@]21C` had an IC50 of over 100 µg/mL.

`C[C@H]1[C@H](C)CC[C@]2(C)CC[C@]3(C)C(=CC(=O)[C@@H]4[C@@]5(C)CC(C=O)C(=O)[C@](C)(C(=O)N6CCOCC6)[C@@H]5CC[C@]43C)[C@H]12` (some centres undefined): the IC50 was over 100 µg/mL.

In the case of `C[C@H]1[C@H](C)CC[C@]2(C)CC[C@]3(C)C(=CC(=O)[C@@H]4[C@@]5(C)Cc6cnoc6[C@](C)(C(=O)N6CCN(C)CC6)[C@@H]5CC[C@]43C)[C@H]12`, the IC50 was over 100 µg/mL.

`C[C@H]1[C@H](C)CC[C@]2(C)CC[C@]3(C)C(=CC(=O)[C@@H]4[C@@]5(C)CC(C=O)C(=O)[C@@H](C)[C@@H]5CC[C@]43C)[C@H]12` (some centres undefined): the IC50 is 44.14 µg/mL (≈ 97.5 µM).

In the case of `C[C@H]1[C@H](C)CC[C@]2(C)CC[C@]3(C)C(=CC(=O)[C@@H]4[C@@]5(C)Cc6cn[nH]c6[C@](C)(C(=O)N6CCN(C)CC6)[C@@H]5CC[C@]43C)[C@H]12`, the IC50 was over 100 µg/mL.

On to `C[C@H]1[C@H](C)CC[C@]2(C)CC[C@]3(C)C(=CC(=O)[C@@H]4[C@@]5(C)CC(C=O)C(=O)[C@](C)(C(N)=O)[C@@H]5CC[C@]43C)[C@H]12` (some centres undefined), for which the IC50 was over 100 µg/mL.

`CC(=O)O[C@@H]1CC[C@@]2(C)[C@@H](CC[C@]3(C)[C@@H]2C(=O)C=C2[C@@H]4[C@@H](C)[C@H](C)CC[C@]4(C)CC[C@]23C)[C@@]1(C)C(=O)O` [AKBA] showed an IC50 of 94.6 µg/mL (≈ 185 µM).

The term IC50 denotes the concentration that gives 50% inhibition. A high value points to a need for much substance.
